Measured values published in patent US20260356819A1, “OXOISOINDOLINYL-SUBSTITUTED […] DERIVATIVE AND USE THEREOF” (GLUETACS THERAPEUTICS (SHANGHAI) CO., LTD., priority 2023, published 2026).

Key:
Format in all cases: cell-based
Settings in all cases: compounds at 50 nM and 500 nM
CK1α = target: T1, CK1α (Homo sapiens, UniProt P48729+Q96SW2); assay: Western blot degradation of CK1α in hPBMCs (24 h)
T1 construct: The supernatant was aspirated as the extracted total cell protein; endogenous in cells; host or cells: human peripheral blood mononuclear cells (hPBMCs)
In short: (§1)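 Degradation in primary human PBMCs after 24 h compound exposure at 50 and 500 nM. Western blot band intensities, normalised to an internal control protein, expressed as % protein remaining relative to DMSO.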

GSPT1 = target: T2, GSPT1 (Homo sapiens, UniProt P15170+Q96SW2); assay: Western blot degradation of GSPT1 in hPBMCs (24 h)
T2 construct: The supernatant was aspirated as the extracted total cell protein; endogenous in cells; host or cells: human peripheral blood mononuclear cells (hPBMCs)
T2 sequence (P15170 whole entry): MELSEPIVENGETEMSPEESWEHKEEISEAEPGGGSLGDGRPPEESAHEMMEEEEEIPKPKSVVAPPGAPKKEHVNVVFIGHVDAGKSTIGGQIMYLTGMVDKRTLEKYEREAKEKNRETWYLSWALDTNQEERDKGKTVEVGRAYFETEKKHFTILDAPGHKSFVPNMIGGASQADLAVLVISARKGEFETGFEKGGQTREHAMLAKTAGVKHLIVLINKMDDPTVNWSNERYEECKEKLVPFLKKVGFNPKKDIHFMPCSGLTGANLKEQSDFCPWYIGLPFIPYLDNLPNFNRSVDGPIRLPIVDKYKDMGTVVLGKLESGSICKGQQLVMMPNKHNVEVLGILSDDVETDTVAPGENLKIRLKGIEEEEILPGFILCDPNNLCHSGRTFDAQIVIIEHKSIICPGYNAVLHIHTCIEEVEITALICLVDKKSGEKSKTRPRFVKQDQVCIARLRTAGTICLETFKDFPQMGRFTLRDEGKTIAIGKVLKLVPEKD
T2 sequence (Q96SW2 whole entry): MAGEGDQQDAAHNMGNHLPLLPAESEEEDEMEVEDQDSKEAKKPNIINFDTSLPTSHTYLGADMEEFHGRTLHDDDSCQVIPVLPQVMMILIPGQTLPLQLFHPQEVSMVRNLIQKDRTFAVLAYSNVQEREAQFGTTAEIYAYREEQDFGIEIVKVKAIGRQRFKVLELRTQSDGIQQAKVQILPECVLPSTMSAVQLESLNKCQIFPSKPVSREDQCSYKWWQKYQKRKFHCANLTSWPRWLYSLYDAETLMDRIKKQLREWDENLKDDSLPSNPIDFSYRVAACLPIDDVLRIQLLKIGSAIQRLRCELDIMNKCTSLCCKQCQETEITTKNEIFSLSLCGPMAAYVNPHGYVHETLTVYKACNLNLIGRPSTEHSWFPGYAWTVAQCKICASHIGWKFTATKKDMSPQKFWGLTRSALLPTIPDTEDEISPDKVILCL
T2 sequence (Q16531 whole entry partner): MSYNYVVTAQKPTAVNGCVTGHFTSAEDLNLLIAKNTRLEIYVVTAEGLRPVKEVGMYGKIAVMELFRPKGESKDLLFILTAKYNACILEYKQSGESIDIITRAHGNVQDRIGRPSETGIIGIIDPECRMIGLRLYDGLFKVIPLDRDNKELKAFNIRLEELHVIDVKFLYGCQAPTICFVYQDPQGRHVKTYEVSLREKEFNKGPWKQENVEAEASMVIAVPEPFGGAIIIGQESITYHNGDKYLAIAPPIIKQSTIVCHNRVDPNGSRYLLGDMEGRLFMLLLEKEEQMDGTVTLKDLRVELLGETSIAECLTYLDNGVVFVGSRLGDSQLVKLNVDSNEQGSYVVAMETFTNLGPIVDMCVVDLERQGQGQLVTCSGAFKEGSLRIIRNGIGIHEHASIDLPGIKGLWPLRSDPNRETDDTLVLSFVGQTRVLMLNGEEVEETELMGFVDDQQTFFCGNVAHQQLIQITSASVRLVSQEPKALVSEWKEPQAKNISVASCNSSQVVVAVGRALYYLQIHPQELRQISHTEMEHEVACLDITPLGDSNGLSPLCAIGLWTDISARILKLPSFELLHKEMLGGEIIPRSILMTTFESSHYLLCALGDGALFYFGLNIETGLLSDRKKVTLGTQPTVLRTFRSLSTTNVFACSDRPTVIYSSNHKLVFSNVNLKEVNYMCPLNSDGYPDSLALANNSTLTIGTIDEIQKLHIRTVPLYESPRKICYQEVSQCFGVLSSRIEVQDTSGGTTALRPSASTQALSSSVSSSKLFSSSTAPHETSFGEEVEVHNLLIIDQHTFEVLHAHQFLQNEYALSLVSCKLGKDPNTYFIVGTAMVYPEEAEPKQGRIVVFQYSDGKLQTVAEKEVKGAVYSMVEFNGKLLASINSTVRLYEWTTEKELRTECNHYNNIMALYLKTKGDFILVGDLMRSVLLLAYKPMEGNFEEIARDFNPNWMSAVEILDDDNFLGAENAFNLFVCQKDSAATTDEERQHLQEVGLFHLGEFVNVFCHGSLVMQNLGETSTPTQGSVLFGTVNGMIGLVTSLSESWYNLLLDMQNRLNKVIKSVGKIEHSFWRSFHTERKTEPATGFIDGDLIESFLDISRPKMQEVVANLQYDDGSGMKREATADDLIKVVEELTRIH
In short: as §1

IKZF1 = target: T3, IKZF1 (Homo sapiens, UniProt Q13422+Q96SW2); assay: Western blot degradation of IKZF1 in hPBMCs (24 h)
T3 construct: The supernatant was aspirated as the extracted total cell protein; endogenous in cells; host or cells: human peripheral blood mononuclear cells (hPBMCs)
T3 sequence (Q13422 whole entry): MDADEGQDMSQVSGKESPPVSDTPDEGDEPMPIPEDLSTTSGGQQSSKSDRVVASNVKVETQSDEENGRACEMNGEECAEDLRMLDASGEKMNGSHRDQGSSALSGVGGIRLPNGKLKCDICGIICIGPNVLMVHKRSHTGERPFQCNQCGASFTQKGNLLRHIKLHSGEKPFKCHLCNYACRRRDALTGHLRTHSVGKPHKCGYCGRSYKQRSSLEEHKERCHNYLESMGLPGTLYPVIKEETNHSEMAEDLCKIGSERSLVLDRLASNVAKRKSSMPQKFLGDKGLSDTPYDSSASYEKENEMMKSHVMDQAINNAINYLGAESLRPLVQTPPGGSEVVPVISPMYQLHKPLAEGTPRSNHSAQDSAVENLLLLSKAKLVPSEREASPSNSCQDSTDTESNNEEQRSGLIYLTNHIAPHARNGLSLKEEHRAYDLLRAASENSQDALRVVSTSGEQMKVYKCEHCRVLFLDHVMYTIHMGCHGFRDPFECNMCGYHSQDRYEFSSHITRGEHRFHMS
T3 sequence (Q96SW2 whole entry): as the sequence (Q96SW2 whole entry) above
T3 sequence (Q16531 whole entry partner): as the sequence (Q16531 whole entry partner) above
In short: as §1

IKZF3 = target: T4, IKZF3 (Homo sapiens, UniProt Q96SW2+Q9UKT9); assay: Western blot degradation of IKZF3 in hPBMCs (24 h)
T4 construct: The supernatant was aspirated as the extracted total cell protein; endogenous in cells; host or cells: human peripheral blood mononuclear cells (hPBMCs)
T4 sequence (Q9UKT9 whole entry): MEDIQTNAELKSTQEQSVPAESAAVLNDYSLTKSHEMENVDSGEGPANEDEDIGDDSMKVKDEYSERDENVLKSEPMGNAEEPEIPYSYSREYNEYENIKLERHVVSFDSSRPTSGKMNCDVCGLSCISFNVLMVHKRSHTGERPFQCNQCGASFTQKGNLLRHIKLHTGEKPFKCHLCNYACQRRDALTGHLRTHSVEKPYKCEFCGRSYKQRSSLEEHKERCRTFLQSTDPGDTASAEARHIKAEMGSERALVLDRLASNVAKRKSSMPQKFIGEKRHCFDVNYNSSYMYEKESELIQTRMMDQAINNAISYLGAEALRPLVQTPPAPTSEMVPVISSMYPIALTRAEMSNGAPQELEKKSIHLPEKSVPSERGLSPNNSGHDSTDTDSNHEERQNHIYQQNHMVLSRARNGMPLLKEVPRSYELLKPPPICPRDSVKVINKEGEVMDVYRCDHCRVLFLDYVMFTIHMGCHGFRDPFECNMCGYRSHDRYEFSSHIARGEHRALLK
T4 sequence (Q96SW2 whole entry): as the sequence (Q96SW2 whole entry) above
T4 sequence (Q16531 whole entry partner): as the sequence (Q16531 whole entry partner) above
In short: as §1

IKZF2 = target: T5, IKZF2 (Homo sapiens, UniProt Q96SW2+Q9UKS7); assay: Western blot degradation of IKZF2 in hPBMCs (24 h)
T5 construct: The supernatant was aspirated as the extracted total cell protein; endogenous in cells; host or cells: human peripheral blood mononuclear cells (hPBMCs)
T5 sequence (Q9UKS7 whole entry): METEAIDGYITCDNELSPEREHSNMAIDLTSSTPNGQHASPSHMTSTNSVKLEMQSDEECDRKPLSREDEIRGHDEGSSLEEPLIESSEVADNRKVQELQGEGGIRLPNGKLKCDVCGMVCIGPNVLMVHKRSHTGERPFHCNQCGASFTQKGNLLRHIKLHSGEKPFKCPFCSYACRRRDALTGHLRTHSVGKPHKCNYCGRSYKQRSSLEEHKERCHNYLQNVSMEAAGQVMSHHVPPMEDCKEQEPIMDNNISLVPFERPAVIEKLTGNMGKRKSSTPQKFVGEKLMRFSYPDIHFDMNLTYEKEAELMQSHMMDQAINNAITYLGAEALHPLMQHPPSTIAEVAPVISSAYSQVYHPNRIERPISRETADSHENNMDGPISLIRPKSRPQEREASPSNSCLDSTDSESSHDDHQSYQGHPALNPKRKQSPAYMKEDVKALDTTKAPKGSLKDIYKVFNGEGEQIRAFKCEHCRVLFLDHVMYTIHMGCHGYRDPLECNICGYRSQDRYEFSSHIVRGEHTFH
T5 sequence (Q96SW2 whole entry): as the sequence (Q96SW2 whole entry) above
T5 sequence (Q16531 whole entry partner): as the sequence (Q16531 whole entry partner) above
In short: as §1

WEE1 = target: T6, WEE1 (Homo sapiens, UniProt P30291+Q96SW2); assay: Western blot degradation of WEE1 in hPBMCs (24 h)
T6 construct: The supernatant was aspirated as the extracted total cell protein; endogenous in cells; host or cells: human peripheral blood mononuclear cells (hPBMCs)
T6 sequence (P30291 whole entry): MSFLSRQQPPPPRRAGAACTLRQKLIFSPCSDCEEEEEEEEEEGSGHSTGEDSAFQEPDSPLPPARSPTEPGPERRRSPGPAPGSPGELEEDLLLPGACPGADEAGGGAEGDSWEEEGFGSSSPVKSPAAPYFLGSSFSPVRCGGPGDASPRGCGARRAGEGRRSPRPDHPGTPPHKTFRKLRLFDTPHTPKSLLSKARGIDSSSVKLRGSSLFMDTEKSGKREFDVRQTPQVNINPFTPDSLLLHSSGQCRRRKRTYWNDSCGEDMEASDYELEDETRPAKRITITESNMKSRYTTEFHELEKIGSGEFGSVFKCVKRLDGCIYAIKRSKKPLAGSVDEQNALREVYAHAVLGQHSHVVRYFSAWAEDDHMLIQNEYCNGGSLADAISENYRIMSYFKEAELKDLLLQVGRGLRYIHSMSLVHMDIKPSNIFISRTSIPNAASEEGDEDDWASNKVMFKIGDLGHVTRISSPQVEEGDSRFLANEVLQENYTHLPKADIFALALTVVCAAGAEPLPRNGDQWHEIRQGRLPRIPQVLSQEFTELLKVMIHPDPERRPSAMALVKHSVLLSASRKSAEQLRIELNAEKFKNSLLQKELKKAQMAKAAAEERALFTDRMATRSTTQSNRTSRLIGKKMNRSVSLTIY
T6 sequence (Q96SW2 whole entry): as the sequence (Q96SW2 whole entry) above
T6 sequence (Q16531 whole entry partner): as the sequence (Q16531 whole entry partner) above
In short: as §1

| SMILES | CK1α substrate protein remaining % (CK1α) | GSPT1 substrate protein remaining % (GSPT1) | IKZF1 substrate protein remaining % (IKZF1) | IKZF3 substrate protein remaining % (IKZF3) | IKZF2 substrate protein remaining % (IKZF2) | WEE1 substrate protein remaining % (WEE1) |
| --- | --- | --- | --- | --- | --- | --- |
| CC1CN(Cc2ccc3c(c2)CN(N2CCC(=O)NC2=O)C3=O)CC(C)N1C(c1ccccc1)c1ccccc1 (stereo not drawn) [GT-06431, 1-(5-((4-benzhydryl-3,5-dimethylpiperazin-1-yl)methyl)-1-oxoisoindolin-2-yl)dihydropyrimidine-2,4(1H,3H)-dione] | B (80%< substrate protein remaining % ≤100%) | A (0% ≤ substrate protein remaining % ≤80%) | A (0% ≤ substrate protein remaining % ≤80%) | B (80%< substrate protein remaining % ≤100%) | A (0% ≤ substrate protein remaining % ≤80%) | A (0% ≤ substrate protein remaining % ≤80%) |
| O=C1CCN(N2C(=O)c3ccc(CN4CCN(Cc5ccccc5-c5ccc(Cl)cc5)CC4)cc3C2=O)C(=O)N1 [GT-06432, 5-((4-((4′-chloro-[1,1′-biphenyl]-2-yl)methyl)piperazin-1-yl)methyl)-2-(2,4-dioxotetrahydropyrimidin-1(2H)-yl)isoindoline-1,3-dione] | B (80%< substrate protein remaining % ≤100%) | A (0% ≤ substrate protein remaining % ≤80%) | A (0% ≤ substrate protein remaining % ≤80%) | B (80%< substrate protein remaining % ≤100%) | B (80%< substrate protein remaining % ≤100%) | A (0% ≤ substrate protein remaining % ≤80%) |
| O=C1CCN(N2Cc3cc(CN4CCN(Cc5ccccc5-c5ccc(Cl)cc5)CC4)ccc3C2=O)C(=O)N1 [GT-06433, 1-(5-((4-((4′-chloro-[1,1′-biphenyl]-2-yl)methyl)piperazin-1-yl)methyl)-1-oxoisoindolin-2-yl)dihydropyrimidine-2,4(1H,3H)-dione] | B (80%< substrate protein remaining % ≤100%) | A (0% ≤ substrate protein remaining % ≤80%) | A (0% ≤ substrate protein remaining % ≤80%) | A (0% ≤ substrate protein remaining % ≤80%) | A (0% ≤ substrate protein remaining % ≤80%) | A (0% ≤ substrate protein remaining % ≤80%) |
| Cc1ccsc1C1=CCN(Cc2ccc3c(c2)C(=O)N(N2CCC(=O)NC2=O)C3=O)CC1 [GT-06434, 2-(2,4-dioxotetrahydropyrimidin-1(2H)-yl)-5-((4-(3-methylthiophen-2-yl)-3,6-dihydropyridin-1(2H)-yl)methyl)isoindoline-1,3-dione] | B (80%< substrate protein remaining % ≤100%) | A (0% ≤ substrate protein remaining % ≤80%) | B (80%< substrate protein remaining % ≤100%) | A (0% ≤ substrate protein remaining % ≤80%) | A (0% ≤ substrate protein remaining % ≤80%) | A (0% ≤ substrate protein remaining % ≤80%) |
| O=C1CCN(N2C(=O)c3ccc(CN4CC=C(c5ccsc5)CC4)cc3C2=O)C(=O)N1 [GT-06435, 2-(2,4-dioxotetrahydropyrimidin-1(2H)-yl)-5-((4-(thiophen-3-yl)-3,6-dihydropyridin-1(2H)-yl)methyl)isoindoline-1,3-dione] | B (80%< substrate protein remaining % ≤100%) | A (0% ≤ substrate protein remaining % ≤80%) | B (80%< substrate protein remaining % ≤100%) | A (0% ≤ substrate protein remaining % ≤80%) | A (0% ≤ substrate protein remaining % ≤80%) | A (0% ≤ substrate protein remaining % ≤80%) |
| C[C@@H]1CN(C(c2ccccc2)c2ccccc2)CCN1Cc1ccc2c(c1)CN(N1CCC(=O)NC1=O)C2=O [GT-06448, (R)-1-(5-((4-benzhydryl-2-methylpiperazin-1-yl)methyl)-1-oxoisoindolin-2-yl)dihydropyrimidine-2,4(1H,3H)-dione] | B (80%< substrate protein remaining % ≤100%) | A (0% ≤ substrate protein remaining % ≤80%) | B (80%< substrate protein remaining % ≤100%) | A (0% ≤ substrate protein remaining % ≤80%) | A (0% ≤ substrate protein remaining % ≤80%) | B (80%< substrate protein remaining % ≤100%) |
| C[C@@H]1CN(C(c2ccccc2)c2ccccc2)CCN1Cc1ccc2c(c1)C(=O)N(N1CCC(=O)NC1=O)C2=O [GT-06449, (R)-5-((4-benzhydryl-2-methylpiperazin-1-yl)methyl)-2-(2,4-dioxotetrahydropyrimidin-1(2H)-yl)isoindoline-1,3-dione] | B (80%< substrate protein remaining % ≤100%) | A (0% ≤ substrate protein remaining % ≤80%) | B (80%< substrate protein remaining % ≤100%) | A (0% ≤ substrate protein remaining % ≤80%) | A (0% ≤ substrate protein remaining % ≤80%) | B (80%< substrate protein remaining % ≤100%) |
| O=C1CCN(N2Cc3cc(CN4CC5CCC4CN5C(c4ccccc4)c4ccccc4)ccc3C2=O)C(=O)N1 (stereo not drawn) [GT-06450, 1-(5-((5-benzhydryl-2,5-diazabicyclo[2.2.2]octan-2-yl)methyl)-1-oxoisoindolin-2-yl)dihydropyrimidine-2,4(1H,3H)-dione] | B (80%< substrate protein remaining % ≤100%) | A (0% ≤ substrate protein remaining % ≤80%) | B (80%< substrate protein remaining % ≤100%) | A (0% ≤ substrate protein remaining % ≤80%) | A (0% ≤ substrate protein remaining % ≤80%) | A (0% ≤ substrate protein remaining % ≤80%) |
| O=C1CCN(N2C(=O)c3ccc(CN4CC5CCC4CN5C(c4ccccc4)c4ccccc4)cc3C2=O)C(=O)N1 (stereo not drawn) [GT-06451, 5-((5-benzhydryl-2,5-diazabicyclo[2.2.2]octan-2-yl)methyl)-2-(2,4-dioxotetrahydropyrimidin-1(2H)-yl)isoindoline-1,3-dione] | B (80%< substrate protein remaining % ≤100%) | B (80%< substrate protein remaining % ≤100%) | B (80%< substrate protein remaining % ≤100%) | B (80%< substrate protein remaining % ≤100%) | B (80%< substrate protein remaining % ≤100%) | A (0% ≤ substrate protein remaining % ≤80%) |
| O=C1CCN(N2Cc3cc(CN4CC5CCC(C4)N5C(c4ccccc4)c4ccccc4)ccc3C2=O)C(=O)N1 [GT-06452, 1-(5-((8-benzhydryl-3,8-diazabicyclo[3.2.1]octan-3-yl)methyl)-1-oxoisoindolin-2-yl)dihydropyrimidine-2,4(1H,3H)-dione] | B (80%< substrate protein remaining % ≤100%) | B (80%< substrate protein remaining % ≤100%) | B (80%< substrate protein remaining % ≤100%) | B (80%< substrate protein remaining % ≤100%) | B (80%< substrate protein remaining % ≤100%) | A (0% ≤ substrate protein remaining % ≤80%) |
